In patent US4017611A, “Control of insects with 3-hydroxymethacrylic acid methyl ester dimethylthionophosphate” (priority 1970, dated 1977):
Where two headings read alike, the source gives them in different places.

What was measured:
[1] = Acute oral toxicity (warm blooded toxicity) in rats; settings: rat, in vivo, po
rats = test: as above; settings: orally, rats
[2] = system: one day old houseflies (Musca domestica); test: Ingestion test with one day old houseflies; format: in vivo; settings: read-out: % flies killed; for mortality at 0.4 ppm: 0.4 ppm in 30% sugar water; for mortality at 0.8 ppm: 0.8 ppm in 30% sugar water; for mortality at 1.5 ppm: 1.5 ppm in 30% sugar water; for mortality at 3 ppm: 3 ppm in 30% sugar water; for mortality at 6 ppm: 6 ppm in 30% sugar water; for mortality at 12 ppm: 12 ppm in 30% sugar water; for mortality at 25 ppm: 25 ppm in 30% sugar water; for mortality at 50 ppm: 50 ppm in 30% sugar water; for mortality at 100 ppm: 100 ppm in 30% sugar water
Procedure: Dilution series were manufactured with water. As solvent for the test preparations and similarly as a nutrition agent for the flies, 30% sugar water was used which had been coloured with chlorantin light red (as an attractant). The dilutions were tested with one day old houseflies. The 1, 2 and 4 hour controls enabled the speed of action to be determined. By means of the 24 hour control the limit concentration (action strength) could also be determined.

adult houseflies = test: Gas action against adult houseflies; format: in vivo, Musca domestica (housefly); settings: 10 mg active substance, 2 liter glass cylinder
Procedure: Using a pipette 10 mg of active substance were placed on a watch glass which was then covered with a wire mesh and placed in a 2 liter glass cylinder. Immediately thereafter 30 houseflies were introduced into the container which was then sealed.
A comparative test between compound 1 and PHOSDRIN (Registered Trade Mark) carried out according to this method gave the following mortality periods in minutes for 10%, 50% and 100% kill of the test animals.

For `COC(=O)C=C(C)OP(=O)(OC)OC` [Phosdrin, reference compound], the LD50 [1] was 3 to 7 mg/kg, the “warm blooded toxicity LD50” value (rats) was 3-7 mg/kg body weight and the mortality at 0.4 ppm ([2]; 1 hour) was 0%. It also gave a mortality at 0.4 ppm ([2]; 2 hours) of 0%, a mortality at 0.4 ppm ([2]; 4 hours) of 0% and a mortality at 0.4 ppm ([2]; 24 hours) of 0%. The mortality at 0.8 ppm ([2]; 1 hour) was 0%, the mortality at 0.8 ppm ([2]; 2 hours) was 0% and the mortality at 0.8 ppm ([2]; 4 hours) was 0%. For the same molecule, the mortality at 0.8 ppm ([2]; 24 hours) was 0%, the mortality at 1.5 ppm ([2]; 1 hour) was 0% and the mortality at 1.5 ppm ([2]; 2 hours) was 0%. For the same molecule, the mortality at 1.5 ppm ([2]; 4 hours) was 0%, the mortality at 1.5 ppm ([2]; 24 hours) was 0% and the mortality at 3 ppm ([2]; 1 hour) was 0%. It also gave a mortality at 3 ppm ([2]; 2 hours) of 0%, a mortality at 3 ppm ([2]; 4 hours) of 0% and a mortality at 3 ppm ([2]; 24 hours) of 20%. For the same molecule, the mortality at 6 ppm ([2]; 1 hour) was 0%, the mortality at 6 ppm ([2]; 2 hours) was 0% and the mortality at 6 ppm ([2]; 4 hours) was 10%. The mortality at 6 ppm ([2]; 24 hours) was 80%, the mortality at 12 ppm ([2]; 1 hour) was 0% and the mortality at 12 ppm ([2]; 2 hours) was 0%. For the same molecule, the mortality at 12 ppm ([2]; 4 hours) was 20%, the mortality at 12 ppm ([2]; 24 hours) was 90% and the mortality at 25 ppm ([2]; 1 hour) was 20%. It also gave a mortality at 25 ppm ([2]; 2 hours) of 40%, a mortality at 25 ppm ([2]; 4 hours) of 60% and a mortality at 25 ppm ([2]; 24 hours) of 100%. The mortality at 50 ppm ([2]; 1 hour) was 30%, the mortality at 50 ppm ([2]; 2 hours) was 70% and the mortality at 50 ppm ([2]; 4 hours) was 80%. The mortality at 50 ppm ([2]; 24 hours) was 100%, the mortality at 100 ppm ([2]; 1 hour) was 100% and the mortality at 100 ppm ([2]; 2 hours) was 100%. For the same molecule, the mortality at 100 ppm ([2]; 4 hours) was 100%, the mortality at 100 ppm ([2]; 24 hours) was 100% and the “Mortality time for 10% of the houseflies” value (adult houseflies; 10% kill) was 22 min. The “Mortality time for 50% of the houseflies” value (adult houseflies; 50% kill) was 25 min and the “Mortality time for 100% of the houseflies” value (adult houseflies; 100% kill) was 30 min.
